pKi: −log10 of the molar value. Values joined by “and” are separate entries in the source; they are usually repeats but may differ in a detail not shown here. Identical values can stand only once.
Molecular target: T1, cAMP-specific 3',5'-cyclic phosphodiesterase 4B (Rattus norvegicus, UniProt P14646)
T1 sequence (P14646 whole entry): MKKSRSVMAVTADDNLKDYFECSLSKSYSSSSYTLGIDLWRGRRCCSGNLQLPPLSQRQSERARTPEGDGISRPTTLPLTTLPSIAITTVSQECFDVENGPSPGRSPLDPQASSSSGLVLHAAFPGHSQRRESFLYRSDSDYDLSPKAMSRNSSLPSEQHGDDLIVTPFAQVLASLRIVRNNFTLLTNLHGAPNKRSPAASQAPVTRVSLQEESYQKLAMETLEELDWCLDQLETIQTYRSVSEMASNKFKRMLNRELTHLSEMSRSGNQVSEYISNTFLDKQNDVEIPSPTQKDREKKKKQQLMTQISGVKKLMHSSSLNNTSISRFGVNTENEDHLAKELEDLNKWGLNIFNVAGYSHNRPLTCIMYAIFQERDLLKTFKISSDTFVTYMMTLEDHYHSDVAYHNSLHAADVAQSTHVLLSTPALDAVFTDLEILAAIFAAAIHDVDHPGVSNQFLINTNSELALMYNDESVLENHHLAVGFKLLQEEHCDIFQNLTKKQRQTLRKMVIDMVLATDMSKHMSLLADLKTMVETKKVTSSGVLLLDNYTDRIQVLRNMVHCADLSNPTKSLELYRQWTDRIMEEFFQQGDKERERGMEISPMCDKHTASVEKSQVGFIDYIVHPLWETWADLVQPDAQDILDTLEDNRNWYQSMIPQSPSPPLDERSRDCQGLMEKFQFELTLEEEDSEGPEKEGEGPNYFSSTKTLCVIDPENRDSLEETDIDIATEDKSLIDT

pKi	Structure (SMILES)
6.05 and 5.90	COc1ccc(C(Cc2ccncc2)c2ccccc2)cc1OC1CCCC1 (configuration not stated) [CDP 840]
< 5.00 and 5.50	COc1cc2c(cc1OC)-c1c/c(=N\c3c(C)cc(C)cc3C)n(C)c(=O)n1CC2 [CAS_5537]
6.00	CCOC(=O)C1=CC2(CC)CCCN3CCc4c(n1c1ccccc41)C32 (configuration not stated) [NSC_443955]
< 5.00	Cc1[nH]c(=O)c(C#N)cc1-c1ccncc1 [Milrinone]
5.08 and 5.51	CC(C)Cn1c(=O)n(C)c(=O)c2[nH]cnc21 [1-methyl-3-(2-methylpropyl)-2,3,6,7-tetrahydro-1H-purine-2,6-dione]
8.52 and 8.62	O=C(Nc1c(Cl)cncc1Cl)c1ccc(OC(F)F)c(OCC2CC2)c1 [DAXAS]

Structure (SMILES)	pKi
COc1ccc(Cc2nccc3cc(OC)c(OC)cc23)cc1OC	< 5.00 and 5.05

From BindingDB's records for doi:10.1124/jpet.102.47407 (University of Tennessee, 2003)
